# According to the METLIN SMRT retention time set (Domingo-Almenara et al. 2019):
# Assay: gradient 5% acetonitrile 3 min, to 50% in 2 min, to 85% in 15 min, held 3 min, 100 µL/min
# Settings: column: Zorbax Extend-C18 2.1 x 50 mm; eluents: water / acetonitrile, 0.1% formic acid
# Procedure, shortened: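 In both positive and negative ionization mode, a quadrupole time-of-flight mass spectrometer coupled to HPLC analyzed pure standards run in mixtures of ~100 molecules. The Zorbax Extend-C18 column (2.1 × 50 mm, 1.8 μm) was operated at 100 μL/min with water and acetonitrile, each containing 0.1% formic acid. The dead volume was 40 μL and the dwell volume 900 μL. Retention time came from adduct peaks that were computationally picked and individually inspected by hand.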
row,SMILES,RP-LC retention time [s]
1,CCCn1c(C2CCN(C(=O)c3ccc(Br)o3)C2)nc2cccnc21 (stereo not given),735
2,O=C(NCc1cccnc1)C1CCN(Cc2cc3ccccc3n2Cc2ccccc2)CC1,624
3,Cc1nc(-c2cccc(NC(=O)c3ncccn3)c2)cs1,665
4,COc1ccc(-n2ccc(=O)c(-c3nc(-c4ccccc4OC)no3)n2)cc1,776
5,COc1cccc(C(=O)CC2(O)C(=O)Nc3ccc(F)cc32)c1 (stereo not given),707
6,O=C(c1cocn1)N1CC(F)(F)C[C@H]1c1nnc(-c2ccccc2)o1,761
7,Cc1nc(-n2cccc2)sc1C(=O)N1CC(c2nc(-c3cccc(Cl)c3)no2)C1,1110
8,O=C(Cn1nc2n(c1=O)CCCC2)NCc1ccc2c(c1)OCO2,619
9,Cc1cc(N2CCN(C)CC2)nc2ccc(NC(=O)Nc3ccc(Cl)cc3)cc12,610
10,CCCN1CCN(C(=O)C2CCN(S(=O)(=O)c3ccc4c(c3)NC(=O)CO4)CC2)CC1,586
11,O=c1c2sccc2n(Cc2nc(-c3ccc(F)c(Cl)c3)no2)c(=O)n1CCc1ccccc1,1230
12,O=S(=O)(NCc1ccc(F)cc1)c1ccccc1-c1nc(-c2cccc(F)c2)no1,1150
13,COc1ccc(-n2ccnc(NC(=O)Nc3ccc(C)c(C)c3)c2=O)cc1OC,955
14,CC(NC(=O)C1CCN(S(C)(=O)=O)c2cc(Cl)ccc2O1)c1ccccc1 (stereo not given),935
15,COc1ccc(NC(=O)Cn2cccc2-c2nc(-c3ccc4c(c3)OCO4)no2)cc1OC,1040
16,COc1cccc(CNC(=O)c2c(C)oc3ccn(C)c(=O)c23)c1,844
17,Cc1oc(C2CCN(S(=O)(=O)c3ccc(C(C)C)cc3)CC2)nc1C(=O)N(C)C,966
18,CC(C)C(=O)Nc1ccc(CCc2nc3ccc(C(=O)NCc4ccco4)cc3[nH]2)cc1,635
19,COc1ccc(OCc2nnc3sc(-c4ccncc4)nn23)cc1,710
20,CC(C)Cc1cc(-c2nn3c(Cc4ccc(Cl)cc4)nnc3s2)n[nH]1,1010
21,COc1ccc(NC(=O)N2C[C@@H]3C[C@H](NS(C)(=O)=O)[C@H]2C3)c(C)c1,652
22,COc1ccc(N2C(=O)CSC2c2ccc(Cl)cc2)cc1 (stereo not given),877
23,CCn1cnnc1C1CCCCN1S(=O)(=O)c1cccs1 (stereo not given),694

row,SMILES,RP-LC retention time [s]
1,Cc1cc2nc(C(=O)Nc3cccc(F)c3)cc(C)n2n1,970
2,COc1ccc(-c2nc3ccc(C)cn3c2Nc2ccc3c(c2)OCO3)cc1,684
3,Cn1nccc1-c1cccc(-c2noc(-c3cccc(NC(=O)c4ccco4)c3)n2)c1,991
4,CC(=O)N1C[C@@H](C(=O)NCCc2cccs2)[C@H](c2nc(C)no2)C1,652
5,Cc1cc(=O)n(CC(=O)Nc2ccc(F)cc2C)c(N2CCOCC2)n1,644
6,COc1cc(NC(=O)c2cc3c(n(-c4ccc(F)cc4)c2=O)CCCC3=O)cc(OC)c1,958
7,CC(C)c1noc(-c2cc(=O)n(CC(=O)Nc3ccc(Cl)cc3)c3ccccc23)n1,1060
8,Cc1cccc(C)c1Nc1c(-c2ccc(N3CCOCC3)cc2)nc2cnc(Br)cn12,1100
9,Cc1noc(-c2ccc(OC3CN(C(=O)C(C)c4ccccc4)C3)cc2)n1 (stereo not given),934
10,Cc1cc(C(=O)NC2CCCCCC2)nn1C,799
11,CCOc1ccccc1NC(=O)c1cnc2c(c1)c(=O)n(C)c(=O)n2-c1ccc(OC)cc1,961
12,CC1C(=O)NCCN1C(=O)CSc1ccc(Cl)cc1 (stereo not given),648
13,O=C(Cn1c(=O)c2cc(C3CC3)nn2c2ncccc21)NC1CCCC1,705
14,CCNc1nc(C)cc(N2CCN(C(=O)Nc3ccc(C)c(C)c3)CC2)n1,684
15,CN(CC1CCOCC1)C(=O)c1ccsc1,643
16,Cc1cccn2cc(C(=O)NCc3cc(F)ccc3F)nc12,655
17,CCCN1C(=O)COc2cc(-c3noc(C(=O)N4CCN(c5cccc(Cl)c5)CC4)n3)ccc21,1230
18,CCc1ccccc1NC(=O)N1CCC(n2cnc3c(C)cccc3c2=O)CC1,853
19,NC1(C(=O)N[C@@H](CCO)c2ccc(Cl)cc2)CCN(c2ncnc3[nH]ccc23)CC1,610
20,Cc1cc(N2CCN(C(=O)Nc3cccc(F)c3)CC2)nc(N2CCCC2)n1,680
21,O=C(Cc1cccs1)N1CCN(c2ccc(=O)n(-c3ccc(Cl)cc3)n2)CC1,804
22,CCNC(=O)C1CCCN(c2nc3ncn(CC(=O)NCc4ccc(OC)cc4)c(=O)c3s2)C1 (stereo not given),642
